Measured values from patent US8927717B1, “Thiochromeno[2,3-c]quinolin-12-one derivatives, preparation method and application thereof” (National Defense Medical Center, priority 2014, dated 2015).

Columns and labels:
IGROV1 = format: cell-based
OVCAR-4 = format: cell-based
SK-OV-3 = format: cell-based
A498 = format: cell-based
UACC-257 = format: cell-based
TOP I (Topoisomerase I) [1] = target: T1, TOP I (Topoisomerase I) (Homo sapiens, UniProt P11387); experiment: TOP I mediated supercoiled DNA relaxation assay; format: biochemical; conditions: five different concentrations; TopoGEN TG2005H, TG-2000H-1
T1 construct: purchased TopoGEN TG2005H
T1 sequence (P11387 1-765): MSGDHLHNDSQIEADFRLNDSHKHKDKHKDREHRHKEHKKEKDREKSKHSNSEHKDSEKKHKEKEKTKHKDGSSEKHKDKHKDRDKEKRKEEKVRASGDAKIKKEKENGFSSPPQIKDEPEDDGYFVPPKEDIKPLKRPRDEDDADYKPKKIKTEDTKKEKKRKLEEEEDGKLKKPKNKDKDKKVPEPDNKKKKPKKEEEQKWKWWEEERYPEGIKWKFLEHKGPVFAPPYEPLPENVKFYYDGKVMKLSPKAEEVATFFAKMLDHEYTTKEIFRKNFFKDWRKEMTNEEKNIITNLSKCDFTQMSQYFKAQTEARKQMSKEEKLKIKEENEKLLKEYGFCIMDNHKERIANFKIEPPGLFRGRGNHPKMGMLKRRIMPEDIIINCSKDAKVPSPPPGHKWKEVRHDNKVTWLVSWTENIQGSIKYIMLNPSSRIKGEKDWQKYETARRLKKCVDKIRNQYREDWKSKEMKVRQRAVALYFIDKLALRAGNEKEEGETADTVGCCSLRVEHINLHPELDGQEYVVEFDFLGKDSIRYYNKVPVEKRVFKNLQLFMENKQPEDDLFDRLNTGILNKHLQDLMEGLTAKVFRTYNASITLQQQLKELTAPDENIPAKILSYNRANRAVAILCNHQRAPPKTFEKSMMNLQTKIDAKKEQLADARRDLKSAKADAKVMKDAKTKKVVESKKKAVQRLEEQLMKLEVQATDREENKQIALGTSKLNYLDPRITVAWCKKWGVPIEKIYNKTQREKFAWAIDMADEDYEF

HCT-15 = format: cell-based
MOLT-4 = format: cell-based
BT-549 = format: cell-based
SR = format: cell-based
HCC-2998 = format: cell-based
SK-MEL-2 = format: cell-based
[2] = target: T2, TOP II (Topoisomerase II) (Homo sapiens, UniProt P11388); experiment: TOP II-catalyzed relaxation of plasmid DNA assay; format: biochemical
T2 construct: purchased TopoGEN TG-2000H-1
T2 sequence (P11388 whole entry): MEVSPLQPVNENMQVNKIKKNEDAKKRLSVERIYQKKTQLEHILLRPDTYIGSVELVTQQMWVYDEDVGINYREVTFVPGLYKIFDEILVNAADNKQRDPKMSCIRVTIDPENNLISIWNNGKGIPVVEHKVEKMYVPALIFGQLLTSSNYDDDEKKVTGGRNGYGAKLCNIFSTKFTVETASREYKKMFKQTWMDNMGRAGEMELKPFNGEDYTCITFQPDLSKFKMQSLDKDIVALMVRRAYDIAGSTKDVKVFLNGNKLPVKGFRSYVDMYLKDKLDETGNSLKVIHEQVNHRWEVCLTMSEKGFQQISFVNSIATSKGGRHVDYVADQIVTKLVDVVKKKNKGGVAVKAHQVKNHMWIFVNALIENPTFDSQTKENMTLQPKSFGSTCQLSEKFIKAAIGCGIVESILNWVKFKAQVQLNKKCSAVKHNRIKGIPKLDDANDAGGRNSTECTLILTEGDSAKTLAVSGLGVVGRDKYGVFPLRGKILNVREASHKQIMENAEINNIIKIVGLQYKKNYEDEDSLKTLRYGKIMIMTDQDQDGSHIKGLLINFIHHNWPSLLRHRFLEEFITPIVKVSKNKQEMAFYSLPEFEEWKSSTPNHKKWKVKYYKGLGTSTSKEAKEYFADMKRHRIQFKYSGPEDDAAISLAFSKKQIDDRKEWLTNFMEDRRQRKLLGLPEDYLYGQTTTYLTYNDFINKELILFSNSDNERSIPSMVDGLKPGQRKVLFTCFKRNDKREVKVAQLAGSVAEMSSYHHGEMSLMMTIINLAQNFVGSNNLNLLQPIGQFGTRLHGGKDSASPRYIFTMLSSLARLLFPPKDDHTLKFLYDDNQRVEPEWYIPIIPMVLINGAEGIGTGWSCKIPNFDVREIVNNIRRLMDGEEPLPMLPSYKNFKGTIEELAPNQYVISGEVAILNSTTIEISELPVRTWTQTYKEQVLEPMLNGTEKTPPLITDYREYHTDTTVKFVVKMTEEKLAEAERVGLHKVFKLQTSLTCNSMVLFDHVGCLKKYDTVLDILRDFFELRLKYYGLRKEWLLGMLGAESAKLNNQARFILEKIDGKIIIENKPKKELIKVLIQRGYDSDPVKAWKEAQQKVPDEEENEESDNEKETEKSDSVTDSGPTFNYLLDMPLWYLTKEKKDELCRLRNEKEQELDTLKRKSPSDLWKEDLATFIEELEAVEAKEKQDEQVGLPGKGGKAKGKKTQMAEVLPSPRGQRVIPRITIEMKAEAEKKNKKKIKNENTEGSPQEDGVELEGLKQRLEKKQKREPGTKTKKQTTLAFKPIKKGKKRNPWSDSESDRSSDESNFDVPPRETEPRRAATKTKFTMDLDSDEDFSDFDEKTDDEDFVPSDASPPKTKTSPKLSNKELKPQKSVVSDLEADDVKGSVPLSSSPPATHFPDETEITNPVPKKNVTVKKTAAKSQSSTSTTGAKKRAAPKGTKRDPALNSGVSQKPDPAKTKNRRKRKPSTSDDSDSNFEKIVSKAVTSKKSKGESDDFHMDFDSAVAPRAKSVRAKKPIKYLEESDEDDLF
Method: We also performed TOP II-catalyzed relaxation of plasmid DNA assays (FIG. 5-7) to evaluate if compounds could inhibit TOP II. […] The IC50 value of compounds 7, N7, N8, N14, N15, N18, and N19 were about 10, 10, 1, 10, 5, 1, and 1 μM, respectively (detect by TopoGEN TG2005H, TG-2000H-1).

NCI-H226 = format: cell-based
HOP-92 = format: cell-based; conditions: Non-small cell lung cancer; 10^−5 molar; 48 hours; SRB
OVCAR-3 = format: cell-based
MDA-MB-435 = format: cell-based
A549/ATCC = format: cell-based
SF-539 = format: cell-based
TOP I (Topoisomerase I) [3] = target: T1, TOP I (Topoisomerase I); experiment: TOP I mediated supercoiled DNA relaxation assay; format: biochemical; conditions: primary assay at 25 and/or 50 μM
Method: According to the cell cytotoxicity, compounds 5, 7, 8, 16, 19, N2, N7, N8, N9, N14-N19, and N25 were also selected for primary TOP I and II activities assays at 25 and/or 50 μM (FIG. 2-4).

CAKI-1 = format: cell-based
HCT-116 = format: cell-based
HOP-62 = format: cell-based
[4] = Ovarian cancer, 10^−5 molar, 48 hours, SRB
[5] = Renal cancer, 10^−5 molar, 48 hours, SRB
[6] = Melanoma, 10^−5 molar, 48 hours, SRB
[7] = Colon cancer, 10^−5 molar, 48 hours, SRB
[8] = Homo sapiens, HCT-15, five dose
[9] = Leukemia, 10^−5 molar, 48 hours, SRB
[10] = Homo sapiens, HCC-2998, five dose
[11] = Homo sapiens, SK-Mel-2, five dose
[12] = Homo sapiens, NCI-H226, five dose
[13] = Non-small cell lung cancer, 10^−5 molar, 48 hours, SRB
[14] = Homo sapiens, A549/ATCC, five dose
[15] = Homo sapiens, SF-539, five dose
[16] = Homo sapiens, HCT-116, five dose
[17] = Homo sapiens, HOP-62, five dose

CN(C)CCNc1nc2ccccc2c2c(=O)c3cc(Cl)ccc3sc12 [Compound N7, 10-Chloro-6-((2-(dimethylamino)ethyl)amino)-12H-thiochromeno[2,3-c]quinolin-12-one]
GI50 (IGROV1; Homo sapiens, IGROV-1, IGROV1, five dose): 1.7 µM
CC50 (IGROV1; Homo sapiens, IGROV-1, IGROV1, five dose, read-out: LC50 (the source's name)): 6.58 µM
TGI (IGROV1; IGROV1, five dose): 3.34 µM
Growth percent IGROV1 (IGROV1; [4]): 33.20%
GI50 (OVCAR-4; Homo sapiens, OVCAR-4, five dose): 1.19 µM
CC50 (OVCAR-4; Homo sapiens, OVCAR-4, five dose, read-out: LC50 (the source's name)): 6.35 µM
TGI (OVCAR-4; OVCAR-4, five dose): 2.75 µM
Growth percent OVCAR-4 (OVCAR-4; [4]): 60.67%
GI50 (SK-OV-3; Homo sapiens, SK-OV-3, five dose): 1.68 µM
CC50 (SK-OV-3; Homo sapiens, SK-OV-3, five dose, read-out: LC50 (the source's name)): 5.58 µM
Growth percent SK-OV-3 (SK-OV-3; [4]): 70.10%
TGI (SK-OV-3; SK-OV-3, five dose): 3.06 µM
TGI (A498; A498, five dose): 9.44 µM
GI50 (A498; Homo sapiens, A498, five dose): 2.7 µM
CC50 (A498; Homo sapiens, A498, five dose, read-out: LC50 (the source's name)): 3.52 µM
Growth percent A498 (A498; [5]): 43.17%
GI50 (UACC-257; Homo sapiens, UACC-257, five dose): 1.74 µM
CC50 (UACC-257; Homo sapiens, UACC-257, five dose, read-out: LC50 (the source's name)): 5.93 µM
Growth percent UACC-257 (UACC-257; [6]): −48.22%
TGI (UACC-257; UACC-257, five dose): 3.21 µM
IC50 (TOP I (Topoisomerase I) [1]): ~10 µM
Growth percent HCT-15 (HCT-15; [7]): −30.05%
TGI (HCT-15; HCT-15, five dose): 3.14 µM
GI50 (HCT-15; [8]): 1.59 µM
LC50 (HCT-15; [8]): 6.21 µM
GI50 (MOLT-4; Homo sapiens, MOLT-4, five dose): 1.71 µM
CC50 (MOLT-4; Homo sapiens, MOLT-4, five dose, read-out: LC50 (the source's name)): 6.74 µM
Growth percent MOLT-4 (MOLT-4; [9]): −56.34%
TGI (MOLT-4; MOLT-4, five dose): 3.40 µM
TGI (BT-549; BT-549, five dose): 2.27 µM
Growth percent BT-549 (BT-549; Breast cancer, 10^−5 molar, 48 hours, SRB): 91.29%
GI50 (BT-549; Homo sapiens, BT-549, five dose): 8.91 µM
CC50 (BT-549; Homo sapiens, BT-549, five dose, read-out: LC50 (the source's name)): 5.33 µM
GI50 (SR; Homo sapiens, SR, five dose): 1.7 µM
LC50 (50% lethal concentration) (SR; Homo sapiens, SR, five dose): 8.14 µM
Growth percent SR (SR; [9]): −34.76%
TGI (SR; SR, five dose): 3.73 µM
Growth percent HCC-2998 (HCC-2998; [7]): −83.65%
TGI (HCC-2998; HCC-2998, five dose): 3.38 µM
GI50 (HCC-2998; [10]): 1.68 µM
LC50 (HCC-2998; [10]): 6.82 µM
GI50 (SK-MEL-2; [11]): 1.8 µM
LC50 (SK-MEL-2; [11]): 6.12 µM
Growth percent SK-MEL-2 (SK-MEL-2; [6]): −7.83%
TGI (SK-MEL-2; SK-Mel-2, five dose): 3.32 µM
IC50 ([2]; five different concentrations, TopoGEN TG2005H, TG-2000H-1, read-out: IC50 value, TOP II mediated supercoiled DNA relaxation): ~10 µM
inhibitory effect in TOP II relaxation assay compared with VP-16 ([2]; primary assay at 25 and/or 50 μM): more potent inhibitory effects than the positive agent VP-16
GI50 (NCI-H226; [12]): 1.84 µM
LC50 (concentration giving 50% net cell kill) (NCI-H226; [12]): 24.3 µM
TGI (NCI-H226; NCI-H226, five dose): 4.38 µM
Growth percent NCI-H226 (NCI-H226; [13]): 58.08%
Growth percent HOP-92 (HOP-92): −10.12%
GI50 (OVCAR-3; Homo sapiens, OVCAR-3, five dose): 1.61 µM
CC50 (OVCAR-3; Homo sapiens, OVCAR-3, five dose, read-out: LC50 (the source's name)): 5.58 µM
TGI (OVCAR-3; OVCAR-3, five dose): 3.00 µM
Growth percent OVCAR-3 (OVCAR-3; [4]): 19.74%
GI50 (MDA-MB-435; Homo sapiens, MDA-MB-435, five dose): 1.71 µM
CC50 (MDA-MB-435; Homo sapiens, MDA-MB-435, five dose, read-out: LC50 (the source's name)): 6.05 µM
TGI (MDA-MB-435; MDA-MB-435, five dose): 3.22 µM
Growth percent MDA-MB-435 (MDA-MB-435; [6]): −64.64%
TGI (A549/ATCC; A549/ATCC, five dose): 3.17 µM
GI50 (A549/ATCC; [14]): 1.66 µM
LC50 (A549/ATCC; [14]): 6.06 µM
Growth percent A549/ATCC (A549/ATCC; [13]): 23.38%
Growth percent SF-539 (SF-539; CNS cancer, 10^−5 molar, 48 hours, SRB): 48.73%
GI50 (SF-539; [15]): 1.68 µM
LC50 (SF-539; [15]): 5.67 µM
TGI (SF-539; SF-539, five dose): 3.08 µM
inhibitory effect in TOP I activity assay compared with CPT (TOP I (Topoisomerase I) [3]): more potent inhibitory effects than CPT
TGI (CAKI-1; CAKI-1, five dose): 2.80 µM
GI50 (CAKI-1; Homo sapiens, CAKI-1, five dose): 1.43 µM
CC50 (CAKI-1; Homo sapiens, CAKI-1, five dose, read-out: LC50 (the source's name)): 5.49 µM
Growth percent CAKI-1 (CAKI-1; [5]): 34.60%
Growth percent HCT-116 (HCT-116; [7]): −96.59%
TGI (HCT-116; HCT-116, five dose): 3.18 µM
GI50 (HCT-116; [16]): 1.57 µM
LC50 (concentration killing 50% of cells) (HCT-116; [16]): 6.45 µM
TGI (HOP-62; HOP-62, five dose): 2.92 µM
GI50 (HOP-62; [17]): 1.54 µM
LC50 (lethal concentration 50) (HOP-62; [17]): 5.56 µM
Growth percent HOP-62 (HOP-62; [13]): 56.42%
